{"source": "patent US9604945B2", "about": "“Sydnonimines-specific dopamine reuptake inhibitors and their use in treating dopamine related disorders” (priority 2007, dated 2017)", "key": {"mice": {"system": "mice", "test": "Irwin behavioral battery", "format": "in vivo, mouse", "conditions": "FIGS. 7A-7C", "protocol": "To further characterize the pharmacological effects of these compounds, Irwin behavioral battery testing was performed.\nTesting occurred towards the end of the light cycle between 8-11 a.m. (lights go off at 11:00 a.m.). The mice were acclimated to the testing room for at least 30 minutes. The Irwin test equipment (timer, viewing jar and support, open arena, grid, ruler, sound box, wood stocks, kimwipes box) was placed under a laminar flow hood. The mouse was first placed in the viewing jar for five (5) minutes and the following parameters were scored:\nAt the end of the 5-minute period, the viewing jar with the muose in it was transferred to the arena, where the jar was disassembled and the mouse released into the arena. The mouse was not handled by the experimenter. The following parameters were scored in the arena in the following order:\nThen the mouse was picked up by its tail and kept above the arena to score the following set of parameters:\nThe mouse was then placed in supine restraint to score the below parameters in the following order:\nThe final three parameters were scored with the mouse above or in the arena: […]"}, "[1]": {"molecular_target": "dopamine transporter (DAT) (Cavia porcellus, UniProt H0WCX4)", "sequence (H0WCX4 1-619)": "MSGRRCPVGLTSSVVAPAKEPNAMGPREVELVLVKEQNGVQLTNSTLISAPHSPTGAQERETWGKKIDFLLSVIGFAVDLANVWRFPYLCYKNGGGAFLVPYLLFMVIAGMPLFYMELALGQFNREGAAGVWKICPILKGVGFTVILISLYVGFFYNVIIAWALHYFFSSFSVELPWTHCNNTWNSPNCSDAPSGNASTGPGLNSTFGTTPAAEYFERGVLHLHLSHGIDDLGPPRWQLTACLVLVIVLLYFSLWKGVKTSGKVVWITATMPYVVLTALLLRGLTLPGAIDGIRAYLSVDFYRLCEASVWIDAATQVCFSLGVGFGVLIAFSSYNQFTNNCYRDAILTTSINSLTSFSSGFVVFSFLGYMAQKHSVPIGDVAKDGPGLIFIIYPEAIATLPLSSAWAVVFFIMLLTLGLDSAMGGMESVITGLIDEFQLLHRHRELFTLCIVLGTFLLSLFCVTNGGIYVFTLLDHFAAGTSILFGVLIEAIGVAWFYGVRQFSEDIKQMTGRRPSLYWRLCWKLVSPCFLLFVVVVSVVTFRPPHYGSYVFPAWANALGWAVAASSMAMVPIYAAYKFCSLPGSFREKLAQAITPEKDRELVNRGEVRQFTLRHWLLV", "test": "Dopamine transporter binding assay [3H]WIN 35,428", "parameters": "species or system Guinea Pig", "conditions": "for inhibition at 10 µM: read-out: INH at 10 μM DAT", "protocol": "DAT inhibition activity was tested according to the procedure described by J. Javitz et al., Mol. Pharmacol., 26: 35-44 (1984). The test results for a number of representative compounds of the invention are reported hereinbelow.\nI. Dopamine Transporter Binding Assay [3H]WIN 35,428\n• This assay was carried out according to the procedure described by Javitch, J. J. et al., Mol. Pharmacol. 26: 35-44; 1984\nA. Tissue Preparation (Prepare all Solutions on Ice) • 1. Thaw frozen brains from male Guinea Pigs (in assay buffer) and place in 50 mM TRIS-HCl (pH 7.4 at 25° C. with 120 mM NaCl). Isolate striatum. • 2. Use a Polytron to homogenize tissue in 20 vols. (w/v) of 50 mM Tris-HCl (pH 7.4 at 25° C. with 120 mM NaCl). • 3. Centrifuge homogenate at 48,400×g for approximately 10 minutes at 4° C. Discard supernatant. • 4. Wash pellet an additional time as described in steps 2 and 3. • 5. Store pellet on ice until needed for binding assay. • 6. Using a Polytron (setting 5; approximately 10 seconds) resuspend pellet in 50 mM Tris-HCl (pH 7.4 at 25° C. with 120 mM NaCl) to an initial concentration of 10 mg/ml (original wet weight), such that the final concentration is 8 mg/ml or 4.0 mg tissue/tube.\nB. Binding Reaction • 1. Each tube receives the following components: • 50 ul drug or vehicle • 50 ul [3H]-WIN 35,428 • 400 ul tissue suspension. • 2. Initiate binding reaction with the addition of tissue, and incubate for 120 minutes at 0° C. (on ice). • 3. Terminate binding reaction by rapid filtration of tube contents onto untreated Whatman GF/C filters. • 4. Rinse the assay tubes once with ice cold 50 mM TRIS HCl (pH 7.4 at 25° C. with 120 mM NaCl, BSA), then rapidly rinse the filters with 6×1 mls/tube of the same wash buffer. • 5. Radioactivity trapped onto the filters is assessed using LSM machine. Let sit for 3 hours in scint cocktail.\nC. Dopamine Tranasporter Binding Assay\nMaterials and Reagents • 1. [3H]-WIN 35-428 is diluted to a concentration of 60 nM in 50 mM TRIS HCl (pH 7.4 at 25° C. with 120 mM NaCl). Thus, the final ligand concentration is 6 nM. • 2. Non-specific binding is defined as that remaining in the presence of 1×10^-6 M GBR12909 (room temperature cabinet). GBR12909 MW=523.5 g/mol. Will solubilize in 4% DMSO (sonicate 15 minutes). Aliquots can be used (1E-3). • 3. The reference compound for the assay is GBR12909 and is diluted in 4% DMSO and is then run at the following final concentrations: 1×10^−10, 5×10^−10, 2×10^−9, 5×10^−9, 1×10^−8, 2×10^−8, 5×10^−8, 1×10^−7, 2×10^−7, 5×10^−7, 1×10^−6, 5×10^−6. • 4. The positive control GBR12909 and is run at the final concentrations of: 2×10-8, 1×10^−7, 5×10^−7M. • 5. The Kd for the receptor is 28.0 nM. Buffers"}, "[2]": {"test": "Plasma drug concentration by different routes of administration", "format": "in vivo, C57BL/6 mice", "conditions": "for Plasma Concentration: time 0 (pre-dose); for concentration at 5 min / concentration at 15 min / concentration at 30 min / concentration at 60 min / concentration at 120 min / concentration at 240 min / concentration at 480 min: C57BL/6, mouse, plasma", "protocol": "The following materials and methods are provided to facilitate the practice of Example 9, in which drug concentration in certain biological samples were assessed using different routes of administration.\nParameters Used in Dosing and Drug Administration of the Compound of Example 3:\nAdult C57BL/6 mice (preferred 16 weeks old).\nThree mice per time point. If all three routes are conducted in same day, one group of pre-dose is efficient.\nIn the studies using adult C57BL/6 mice (preferably approximately 16 weeks old), dosing and drug administration parameters for the compound of Example 3 were explored. Clearly, the compound is suitable for oral administration and lasts in the plasma up to 2-3 hours."}, "male mice": {"system": "male mice", "test": "Novel environment-induced feeding suppression (NEIFS)", "format": "in vivo, mouse", "conditions": "10 and 90 mg/kg, FIG. 10", "protocol": "Novel environment-induced feeding suppression (NEIFS) testing was also performed. Individually housed male mice aged 8-12 weeks are used for this testing. Mice were maintained no a reverse L:D/12 p.m.:12 a.m. cycle in a barrier facility with food and water available ad libitum. Testing occurred towards the end of the light cycle between 6-12 a.m. The mice were acclimated to the testing room for at least 30 minutes.\nDays 1, 2, 3 and 5 (Home cage): A Petri dish containing crushed Graham crackers was placed in the farthest corner from each mouse in its own home cage. The time to approach (defined as nose of the mouse directed at or within 1 cm of the dish) and consume (eat, not pick up) the crackers was recorded immediately following the placement of the dish into home cage.\nDay 4 (Novel environment): The procedure followed was the same as described for home cage; however, on day 4 the mouse was placed in a new cage with bedding (novel environment) for the duration of the experiment. The mice were subsequently returned to their respective home cages for day 5 testing. The remaining crackers and Petri dish were disposed of at the end of the experiment for each mouse."}}}
{"smiles": "Cc1ccc(C[n+]2[cH-]/c(=N\\C(=O)Nc3ccccc3)on2)cc1", "note": "[Example 3, N-phenylcarbamoyl-3-(p-methyl-benzyl)-sydnonimine]", "values": [{"measurement": "Behavioral effects in Irwin Behavioral Battery (spontaneous activity, grip strength, limb tone)", "setting": "mice", "value": "induced significant behavioral effects"}, {"measurement": "Ki", "setting": "[1]", "value": 0.19, "unit": "nM"}, {"measurement": "inhibition at 10 µM", "setting": "[1]", "value": 94, "unit": "%"}, {"measurement": "Plasma Concentration", "setting": "[2]; 10 mg/kg (IP)", "value": 21.00, "unit": "ng/mL"}, {"measurement": "Plasma Concentration", "setting": "[2]; 10 mg/kg (IV)", "value": 18.33, "unit": "ng/mL"}, {"measurement": "Plasma Concentration", "setting": "[2]; 10 mg/kg (PO)", "value": 10.60, "unit": "ng/mL"}, {"measurement": "Plasma Concentration", "setting": "[2]; 30 mg/kg (PO)", "value": 8.93, "unit": "ng/mL"}, {"measurement": "concentration at 5 min", "setting": "[2]; intraperitoneal, 10 mg/kg (IP)", "value": 973, "unit": "ng/mL"}, {"measurement": "concentration at 15 min", "setting": "[2]; intraperitoneal, 10 mg/kg (IP)", "value": 316, "unit": "ng/mL"}, {"measurement": "concentration at 30 min", "setting": "[2]; intraperitoneal, 10 mg/kg (IP)", "value": 544, "unit": "ng/mL"}, {"measurement": "concentration at 60 min", "setting": "[2]; intraperitoneal, 10 mg/kg (IP)", "value": 115, "unit": "ng/mL"}, {"measurement": "concentration at 120 min", "setting": "[2]; intraperitoneal, 10 mg/kg (IP)", "value": 82.5, "unit": "ng/mL"}, {"measurement": "concentration at 240 min", "setting": "[2]; intraperitoneal, 10 mg/kg (IP)", "value": 34, "unit": "ng/mL"}, {"measurement": "concentration at 480 min", "setting": "[2]; intraperitoneal, 10 mg/kg (IP)", "value": 31.2, "unit": "ng/mL"}, {"measurement": "concentration at 5 min", "setting": "[2]; 10 mg/kg (IV)", "value": 2090, "unit": "ng/mL"}, {"measurement": "concentration at 15 min", "setting": "[2]; 10 mg/kg (IV)", "value": 2110, "unit": "ng/mL"}, {"measurement": "concentration at 30 min", "setting": "[2]; 10 mg/kg (IV)", "value": 915, "unit": "ng/mL"}, {"measurement": "concentration at 60 min", "setting": "[2]; 10 mg/kg (IV)", "value": 417, "unit": "ng/mL"}, {"measurement": "concentration at 120 min", "setting": "[2]; 10 mg/kg (IV)", "value": 139, "unit": "ng/mL"}, {"measurement": "concentration at 240 min", "setting": "[2]; 10 mg/kg (IV)", "value": 47.4, "unit": "ng/mL"}, {"measurement": "concentration at 480 min", "setting": "[2]; 10 mg/kg (IV)", "value": 94.6, "unit": "ng/mL"}, {"measurement": "concentration at 5 min", "setting": "[2]; 10 mg/kg (PO)", "value": 218, "unit": "ng/mL"}, {"measurement": "concentration at 15 min", "setting": "[2]; 10 mg/kg (PO)", "value": 115, "unit": "ng/mL"}, {"measurement": "concentration at 30 min", "setting": "[2]; 10 mg/kg (PO)", "value": 59.9, "unit": "ng/mL"}, {"measurement": "concentration at 60 min", "setting": "[2]; 10 mg/kg (PO)", "value": 21.3, "unit": "ng/mL"}, {"measurement": "concentration at 120 min", "setting": "[2]; 10 mg/kg (PO)", "value": 17.6, "unit": "ng/mL"}, {"measurement": "concentration at 240 min", "setting": "[2]; 10 mg/kg (PO)", "value": 15.8, "unit": "ng/mL"}, {"measurement": "concentration at 480 min", "setting": "[2]; 10 mg/kg (PO)", "value": 14.3, "unit": "ng/mL"}, {"measurement": "concentration at 5 min", "setting": "[2]; 30 mg/kg (PO)", "value": 838, "unit": "ng/mL"}, {"measurement": "concentration at 15 min", "setting": "[2]; 30 mg/kg (PO)", "value": 670, "unit": "ng/mL"}, {"measurement": "concentration at 30 min", "setting": "[2]; 30 mg/kg (PO)", "value": 375, "unit": "ng/mL"}, {"measurement": "concentration at 60 min", "setting": "[2]; 30 mg/kg (PO)", "value": 114, "unit": "ng/mL"}, {"measurement": "concentration at 120 min", "setting": "[2]; 30 mg/kg (PO)", "value": 41.9, "unit": "ng/mL"}, {"measurement": "concentration at 240 min", "setting": "[2]; 30 mg/kg (PO)", "value": 48.5, "unit": "ng/mL"}, {"measurement": "concentration at 480 min", "setting": "[2]; 30 mg/kg (PO)", "value": 13.4, "unit": "ng/mL"}, {"measurement": "Time the compound lasts in the plasma", "setting": "[2]; mouse, in vivo", "value": "2 to 3", "unit": "h"}, {"measurement": "Anxiolytic effect in novel environment induced feeding suppression", "setting": "male mice", "value": "induced measurable anxiolytic effects"}]}
{"smiles": "O=C(/N=c1\\[cH-][n+](CCCc2ccccc2)no1)Nc1ccccc1", "note": "[Example 6, N-phenylcarbamoyl-3-(phenylpropyl)-sydnonimine]", "values": [{"measurement": "Ki", "setting": "[1]", "value": 25, "unit": "nM"}, {"measurement": "inhibition at 10 µM", "setting": "[1]", "value": 96, "unit": "%"}, {"measurement": "Oral bioavailability compared to Example 3", "setting": "[2]; oral, 10 and 30 mg/kg, FIG. 3", "value": "relatively higher oral bioavailability"}, {"measurement": "Bioavailability in the plasma and brain compared to Example 3", "setting": "[2]; same dosage, different routes, FIGS. 2A-2D", "value": "slightly better bioavailability"}]}
